Data as given in patent publication US20080242688A1, “Method 741” (ASTRAZENECA AB, priority 2007, published 2008).
Several values for one entry are separate records, joined by “and”; a condition that tells them apart may be missing. Equal entries are not always repeated. Where two headings read alike, the source gives them in different places.

What was measured:
Multiple dose PK/TK, dog = assay type: in vivo; conditions: Beagle, dog, in vivo, po, 0295AD, capsules fed
From the text: (§1) This section provides a summary of the pharmacokinetic and metabolism properties of AZD0328 derived from in vivo studies. […] The derived PK/TK parameters from these studies are presented in Table 4 for single dose studies (DMR4, 0619LR, 20030191PCR, DMO16, DMB10, DMW12, 50190, 0190DD and 03.330/1), and are presented in Table 5 multiple dose PK/TK studies (DMR4, 0612AR, DMB15, 50190, 0190DD and 0295AD).

[1] = Single dose PK/TK, rabbit; conditions: New Zealand White, in vivo
From the text: as §1

α7 receptor [2] = target: T1, α7 receptor (Rattus norvegicus, UniProt Q05941); experiment: Pre-frontal cortex slice GABA sIPSC frequency; assay type: cell-based; conditions: rat PFC slice
From the text: (§2) In membranes prepared either from cultured, human recombinant α7 receptor-expressing, human embryonic kidney cells α7-HEK) or from rat brain hippocampus, AZD0328 competed with binding of an iodinated form of the high-affinity, selective α7 receptor antagonist snake toxin, [^125I]-α-bungarotoxin (BTX) (Table 1). In Xenopus oocytes injected with human, recombinant α7 receptor mRNA, AZD0328 activates whole cell currents (Table 2). […] In acutely dissociated rat hippocampal interneurons, AZD0328 elicits rapidly activated, desensitizing whole-cell current (Table 1), consistent with the known properties of rat neuronal α7 receptors. […] AZD0328 modulates synaptic function, consistent with the well-known role of α7 receptors as heteroreceptor modulators of glutamatergic and GABAergic synaptic function.

[3] = target: human recombinant α7 receptor (Homo sapiens, UniProt P36544); experiment: [3H]-AZ11637326 binding, α7-HEK; design: expressed in transfected cells
[4] = Maximum tolerated dose and 7 days oral toxicity in the dog; assay type: in vivo; conditions: both sexes, dog, in vivo, oral; dogs, single doses of 4.5 to 17 mg/kg
Description: (§3) Single doses of 4.5 to 17 mg/kg were administrated to test AZD0328 to 2 male and 2 female dogs. […] Signs of nausea and at the higher doses vomiting was seen. In the 7 days repeated dose study 2 male and 2 female dogs were given 35 mg/kg per day. However, vomiting was the major clinical sign recorded during the study.

dogs = experiment: as above; assay type: in vivo
Description: as §3

α7 receptor [5] = target: T1, α7 receptor; experiment: FFX hippocampal slice fEPSP, LTP; assay type: cell-based; conditions: 10 μM
From the text: as §2

[6] = target: T2, hERG-encoded potassium channel (Homo sapiens, UniProt Q12809); experiment: hERG patch clamp; assay type: cell-based; conditions: HEK cells, read-out: IC50, block of hERG tail current (estimated)
T2 construct: expressed in transfected cells; host or cells: HEK cells
Description: A study was performed to evaluate the effects of AZD0328 on the α-subunit of the voltage-dependent potassium channel encoded by the human ether-a-go-go-related gene (hERG), using the patch clamp technique (Table 3).

rats = experiment: Nicotine drug discrimination; assay type: in vivo, rat
[7] = female, 26 mg/kg, dog 6F, 26.0 mg/kg (120 μmol/kg) split into 17.3 and 8.7 mg/kg 6 h apart, day 35
[8] = female, 34.6 mg/kg, dog 6F, 34.6 mg/kg (160 μmol/kg) split in two 6 h apart, day 7
[9] = male, 8.65 mg/kg, dog 3M, 8.65 mg/kg (40 μmol/kg) split in two 6 h apart, day 7
[10] = male, 8.65 mg/kg, dog 3M, 8.65 mg/kg (40 μmol/kg) split in two 6 h apart, day 35
[11] = male, 17.3 mg/kg, dog 3M, 17.3 mg/kg (80 μmol/kg) split in two 6 h apart, day 7
[12] = male, 17.3 mg/kg, dog 3M, 17.3 mg/kg (80 μmol/kg) split in two 6 h apart, day 35
[13] = male, 26 mg/kg, dog 6M, 26.0 mg/kg (120 μmol/kg) split into 17.3 and 8.7 mg/kg 6 h apart, day 35
[14] = male, 34.6 mg/kg, dog 6M, 34.6 mg/kg (160 μmol/kg) split in two 6 h apart, day 7
[15] = female, sc, rabbit 3F, DMB10, single subcutaneous 2.16 mg/kg (10 μmol/kg)
[16] = female, sc, rabbit 3F, DMB10, single subcutaneous 6.49 mg/kg (30 μmol/kg)

T1 sequence (Q05941 23-502): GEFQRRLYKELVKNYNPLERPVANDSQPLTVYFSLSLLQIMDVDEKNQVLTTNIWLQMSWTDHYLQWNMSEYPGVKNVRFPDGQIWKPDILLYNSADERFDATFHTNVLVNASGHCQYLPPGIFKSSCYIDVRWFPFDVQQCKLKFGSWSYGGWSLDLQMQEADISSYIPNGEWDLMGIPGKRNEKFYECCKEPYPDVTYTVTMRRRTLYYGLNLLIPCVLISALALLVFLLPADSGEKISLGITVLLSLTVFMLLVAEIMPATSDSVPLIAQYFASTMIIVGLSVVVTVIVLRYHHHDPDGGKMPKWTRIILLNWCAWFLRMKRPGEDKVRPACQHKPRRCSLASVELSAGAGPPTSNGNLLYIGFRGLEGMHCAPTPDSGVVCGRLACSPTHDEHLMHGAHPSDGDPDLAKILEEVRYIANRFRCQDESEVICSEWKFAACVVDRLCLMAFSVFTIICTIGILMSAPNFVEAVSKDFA
Chain of human recombinant α7 receptor (P36544 23-502): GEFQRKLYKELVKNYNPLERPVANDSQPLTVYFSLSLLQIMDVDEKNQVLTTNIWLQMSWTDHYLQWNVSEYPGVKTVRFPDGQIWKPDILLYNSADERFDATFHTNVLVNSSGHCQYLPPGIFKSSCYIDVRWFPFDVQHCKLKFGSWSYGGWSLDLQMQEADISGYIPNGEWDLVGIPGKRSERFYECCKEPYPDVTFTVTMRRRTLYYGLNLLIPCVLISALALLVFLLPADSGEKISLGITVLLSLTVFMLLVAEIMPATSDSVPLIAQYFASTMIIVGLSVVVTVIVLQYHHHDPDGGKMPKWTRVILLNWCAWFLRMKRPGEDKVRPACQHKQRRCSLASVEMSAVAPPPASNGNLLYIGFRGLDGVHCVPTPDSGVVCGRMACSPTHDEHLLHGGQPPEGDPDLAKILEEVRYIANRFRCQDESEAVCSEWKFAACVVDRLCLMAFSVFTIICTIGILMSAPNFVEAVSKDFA
T2 sequence (Q12809 whole entry): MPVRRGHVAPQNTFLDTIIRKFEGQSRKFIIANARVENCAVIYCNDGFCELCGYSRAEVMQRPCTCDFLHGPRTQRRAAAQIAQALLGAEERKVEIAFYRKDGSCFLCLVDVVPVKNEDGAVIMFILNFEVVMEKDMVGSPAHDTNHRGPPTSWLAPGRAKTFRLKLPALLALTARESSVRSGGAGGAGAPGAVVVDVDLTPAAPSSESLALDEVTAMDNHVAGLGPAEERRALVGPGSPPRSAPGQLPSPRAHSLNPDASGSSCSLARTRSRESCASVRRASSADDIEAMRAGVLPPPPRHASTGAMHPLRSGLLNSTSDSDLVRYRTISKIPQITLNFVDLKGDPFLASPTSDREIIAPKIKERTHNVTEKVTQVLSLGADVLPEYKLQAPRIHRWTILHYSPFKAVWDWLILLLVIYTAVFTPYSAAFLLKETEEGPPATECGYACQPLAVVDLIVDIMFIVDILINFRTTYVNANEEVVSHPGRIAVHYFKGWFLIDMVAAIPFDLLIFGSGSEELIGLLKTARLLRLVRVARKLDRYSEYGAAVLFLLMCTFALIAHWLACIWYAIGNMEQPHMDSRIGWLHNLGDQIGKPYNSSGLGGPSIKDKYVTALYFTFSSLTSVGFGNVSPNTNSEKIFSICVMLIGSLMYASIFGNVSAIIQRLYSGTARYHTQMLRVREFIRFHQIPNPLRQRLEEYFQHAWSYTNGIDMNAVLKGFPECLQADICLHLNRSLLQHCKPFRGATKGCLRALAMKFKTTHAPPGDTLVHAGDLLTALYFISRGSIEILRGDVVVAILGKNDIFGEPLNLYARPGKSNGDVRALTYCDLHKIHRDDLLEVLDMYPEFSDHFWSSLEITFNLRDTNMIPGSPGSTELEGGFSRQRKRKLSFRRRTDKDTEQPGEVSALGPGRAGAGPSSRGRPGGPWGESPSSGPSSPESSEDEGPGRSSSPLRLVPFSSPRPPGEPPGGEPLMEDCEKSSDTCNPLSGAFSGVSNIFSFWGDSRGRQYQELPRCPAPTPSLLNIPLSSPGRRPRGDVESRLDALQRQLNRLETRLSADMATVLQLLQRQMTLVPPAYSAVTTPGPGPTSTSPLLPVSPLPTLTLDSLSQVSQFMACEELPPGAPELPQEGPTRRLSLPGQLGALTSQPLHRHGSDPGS

With `c1cnc2c(c1)C[C@@]1(CN3CCC1CC3)O2` [AZD0328, (R)-Spiro[1-azabicyclo[2.2.2]octane-3,2′(3′H)-furo[2,3-b]pyridine]] the Tmax at 35 day (Multiple dose PK/TK, dog; female, 17.3 mg/kg, dog 3F, 17.3 mg/kg (80 μmol/kg) split in two 6 h apart, day 35) was 1 to 9 h, the AUC (Multiple dose PK/TK, dog; [7]) was 3460 ng·h/mL and 16 µM·h and the Cmax (Multiple dose PK/TK, dog; [7]) was 1190 ng/mL and 5.49 µM. It also gave a Tmax (Multiple dose PK/TK, dog; [7]) of 1 to 8.5 h, an AUC (Multiple dose PK/TK, dog; [8]) of 19.2 µM·h and an AUC at 7 day (Multiple dose PK/TK, dog; [8]) of 4160 ± 1990 ng·h/mL. The Cmax (Multiple dose PK/TK, dog; [8]) was 8.69 µM, the Cmax at 7 day (Multiple dose PK/TK, dog; [8]) was 1880 ± 1060 ng/mL and the Tmax at 7 day (Multiple dose PK/TK, dog; [8]) was 0.5 to 6.5 h. For the same compound, the AUC at 7 day (Multiple dose PK/TK, dog; [9]) was 868 ng·h/mL and 4 µM·h, the Cmax at 7 day (Multiple dose PK/TK, dog; [9]) was 286 ng/mL and 1.32 µM and the Tmax at 7 day (Multiple dose PK/TK, dog; [9]) was 0.5 to 7 h. The AUC at 35 day (Multiple dose PK/TK, dog; [10]) was 1250 ng·h/mL and 5.79 µM·h, the Cmax at 35 day (Multiple dose PK/TK, dog; [10]) was 373 ng/mL and 1.73 µM and the Tmax at 35 day (Multiple dose PK/TK, dog; [10]) was 8.5 to 9 h. The AUC at 7 day (Multiple dose PK/TK, dog; [11]) was 1930 ng·h/mL and 8.92 µM·h, the Cmax at 7 day (Multiple dose PK/TK, dog; [11]) was 619 ng/mL and 2.86 µM and the Tmax at 7 day (Multiple dose PK/TK, dog; [11]) was 6.5 to 7 h. The AUC at 35 day (Multiple dose PK/TK, dog; [12]) was 1690 ng·h/mL and 7.85 µM·h, the Cmax at 35 day (Multiple dose PK/TK, dog; [12]) was 608 ng/mL and 2.81 µM and the Tmax at 35 day (Multiple dose PK/TK, dog; [12]) was 1 to 9 h. The AUC (Multiple dose PK/TK, dog; [13]) was 4530 ng·h/mL and 20.9 µM·h, the Cmax (Multiple dose PK/TK, dog; [13]) was 8.16 µM and the Tmax (Multiple dose PK/TK, dog; [13]) was 0.5 to 2 h. The AUC (Multiple dose PK/TK, dog; [14]) was 5260 ng·h/mL and 24.3 µM·h, the Cmax (Multiple dose PK/TK, dog; [14]) was 1910 ng/mL and 8.82 µM and the Tmax (Multiple dose PK/TK, dog; [14]) was 0.5 to 7 h. For the same compound, the half-life ([1]; rabbit, read-out: elimination half-life) was < 5 h, the AUC [1, 15] was 1750 ng·h/mL and 8.1 µM·h and the Cmax [1, 15] was 589 ng/mL and 2.72 µM. For the same compound, the Tmax [1, 15] was 0.5 to 1.12 h, the half-life ([1]; female, sc, rabbit 3F, DMB10, single subcutaneous 2.16 mg/kg (10 μmol/kg), read-out: T½ (converted)) was 2.71 ± 1.17 h and the AUC [1, 16] was 7340 ng·h/mL and 33.9 µM·h. For the same compound, the Cmax [1, 16] was 1750 ± 56 ng/mL, the Tmax [1, 16] was 0.267 to 1.08 h and the half-life ([1]; female, sc, rabbit 3F, DMB10, single subcutaneous 6.49 mg/kg (30 μmol/kg), read-out: T½ (converted)) was 4.56 ± 1.36 h. It also gave an EC50 (α7 receptor [2]) of 700 nM, an Emax (α7 receptor [2]; read-out: Maximum response, GABA sIPSC frequency) of 330% and a Ki [3] of 6.4 nM. The Cmax [4] was 2.8 to 14 µM, the “dose with slight QT prolongation (ECG)” value (dogs) was ≥ 8.6 mg/kg and the “fEPSP LTP” value (α7 receptor [5]) was 153 % baseline. The IC50 [6] was 32000 nM, the “dose up to which nicotine-like stimulus properties were lacking” value (rats; rat, sc) was “properties at doses up to 5.4 mg/kg” and the nicotine-like stimulus effects (rats; rats trained to discriminate 0.3 mg/kg nicotine, sc) was “lack of nicotine-like stimulus properties”. The rate of responding (rats; rats, doses up to 30 mg/kg sc) was “severely depressed the rate of responding”.
